What all share (assay type): functional
One assay has as its system HCT-116. In words: Antiproliferative activity against human HCT-116 cells assessed as growth inhibition incubated for 3 days. The conditions noted are these: HCT-116, 72 h, time 3 day.
The next assay deals with LS174T. In words: Antiproliferative activity against human LS174T cells assessed as growth inhibition incubated for 3 days. Conditions: 72 h, time 3 day.
Another assay relates to A549. In words: Antiproliferative activity against human A549 cells assessed as growth inhibition incubated for 3 days. The conditions noted are these: A549, 72 h, time 3 day.

Regarding `COc1cccc2c1C(=O)c1c(O)c3c(c(O)c1C2=O)C[C@@](O)(C(=O)CO)C[C@@H]3O[C@H]1C[C@H](N)[C@H](O)[C@H](C)O1` [DOXORUBICIN], the GI50 with HCT-116 was 77 nM; in the assay on LS174T it was 248 nM; in the assay with A549, 608 nM.
For `COCO[C@@H](C)/C=C\C(=O)N[C@@H]1C[C@H](C)[C@H](C/C=C(C)/C=C/[C@@H](O)[C@H]2OC(C)(C)C[C@@]23CO3)O[C@@H]1C` the same measures were 3400 nM, 5500 nM and 8700 nM.
For `COCO[C@@H](C)/C=C\C(=O)N[C@@H]1C[C@H](C)[C@H](C/C=C(C)/C=C/[C@H]2OC(C)(C)C[C@@]3(CO3)[C@@H]2O)O[C@@H]1C` the same measures were 3.1 nM, 8.4 nM and 3.9 nM.
As for `CC(=O)O[C@@H](C)/C=C\C(=O)N[C@@H]1C[C@H](C)[C@H](C/C=C(C)/C=C/[C@H]2OC(C)(C)C[C@@]3(CO3)[C@@H]2O)O[C@@H]1C`, the results for the GI50 in the assay with HCT-116, with LS174T and in the assay on A549 were 1.1 nM, 5.7 nM and 7.4 nM, respectively.

For the origin of these results see ChEMBL document CHEMBL5625279, “Synthesis and antiproliferative activity of a tetrahydrofuran analog of FR901464” (2024).
